Legend:
[1] = molecular target: T1, prostanoide receptor subtype (human EP4) (Homo sapiens, UniProt P35408); experiment: Binding assay using expression of prostanoide receptor subtype ([3H]-PGE2, membrane fraction of transfected COS-7 cells); conditions: test compound 1.0 × 10^−7M; [3H]-PGE2 binding, COS-7 membrane, human EP4, 1 hour at 30° C.
T1 construct: expressed in transfected cells; host or cells: COS-7 cells (membrane fraction)
Experimental: Binding Assay Using Expression of Prostanoide Receptor Subtype
The membrane fraction was prepared using COS-7 cells transfected prostanoide receptor subtype (human EP4).
The standard assay mixture contained membrane fraction, [^3H]-PGE2 in final volume of 0.25 ml was incubated for 1 hour at 30° C. The reaction was terminated by that the mixture was rapidly filtered through a glass filter (GF/B). Then the filter was washed by 4ml of ice-cold buffer at two times. The radioactivity associated with the filter was measured by liquid scintillation counting.
In the experiment for competition of specific [^3H]-PGE2 was added at a concentration of 10 μM. The following buffer was used in all reactions.
Buffer: 20 mM Mes (pH 6.0), 1 mM EDTA, 10 mM MgCl2

[2] = test system: Mesangial Proliferative Glomerulonephritis Model; experiment: Mesangial proliferative glomerulonephritis model (OX-7 mAb i.v.), urinary protein; format: in vivo; conditions: 24 h urine 1 day after OX-7, female Wistar rats, Normal 40.8 ± 2.3, Control 127.9 ± 12.6
Experimental: Methods of Mesangial Proliferative Glomerulonephritis Model
Female Wistar rats, 6 weeks old were purchased from SLC (Shizuoka, Japan). Glomerulosclerosis model was produced by intravenous injections (i.v.) of the monoclonal antibody (mAb), MRC OX-7 (Dainippon Co. Ltd., Osaka, Japan). The 8 weeks old rats were divided into 4 groups (10 rats/group). Group 1 was injected saline instead of OX-7 as a normal group and treated with vehicle (0.5% methylcellulose solution) only. Group 2 was also treated with the vehicle only after the injection of 1 mg/kg OX-7 as a control group. Group 3 and Group 4 were treated with N-benzylsulfonyl-3-{[(1S)-2-(4,5-diphenyloxazol-2-yl)-2-cyclohexen-1-yl]methyl}benzamide (Example 2-75), as shown in the following Table. The compound was orally given every day from 5 days before to one day after i.v. administration of the antibody. Urine was collected for 24 hours from the rats in metabolic cages 1 day after injection of OX-7 and the amount of protein in each sample was determined by the biuret method using bovine serum albumine as the standard. All the rats were sacrificed 2 days after injection of OX-7. Blood biochemical analysis was carried out. [drawing 11]

T1 sequence (P35408 whole entry): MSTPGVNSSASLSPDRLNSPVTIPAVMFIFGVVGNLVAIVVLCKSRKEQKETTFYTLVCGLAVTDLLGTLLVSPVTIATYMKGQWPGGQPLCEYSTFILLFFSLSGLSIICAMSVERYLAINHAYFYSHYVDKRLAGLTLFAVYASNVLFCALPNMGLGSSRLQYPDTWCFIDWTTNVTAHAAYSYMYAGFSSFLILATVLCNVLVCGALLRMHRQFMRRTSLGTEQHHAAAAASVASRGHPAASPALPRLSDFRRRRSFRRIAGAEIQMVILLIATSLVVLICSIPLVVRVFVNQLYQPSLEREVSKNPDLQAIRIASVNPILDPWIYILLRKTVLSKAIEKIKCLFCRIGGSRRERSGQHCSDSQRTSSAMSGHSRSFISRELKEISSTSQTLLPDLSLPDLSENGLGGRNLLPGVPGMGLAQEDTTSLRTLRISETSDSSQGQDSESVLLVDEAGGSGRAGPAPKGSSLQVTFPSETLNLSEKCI

Row | inhibition at 0.1 µM [1] [%] | Compound | Urinary Protein ([2]; 1 mg/kg orally every day from 5 days before to one day after OX-7) [mg/day] | Urinary Protein ([2]; 10 mg/kg orally every day from 5 days before to one day after OX-7) [mg/day] | Inhibition (%) [1]
1 | ≥ 80 | O=C(NCC(c1ccccc1)c1ccccc1)c1cccc(C[C@@H]2CCC[C@H]2c2nc(-c3ccccc3)c(-c3ccccc3)o2)c1 [Example 1-50, N-(2,2-diphenylethyl)-3-{[(1S,2R)-2-(4,5-diphenyloxazol-2-yl)-1-cyclopentyl]methyl}benzamide] | – | – | –
2 | ≥ 80 | O=C(NS(=O)(=O)Cc1ccccc1)c1cccc(C[C@@H]2CCCC=C2c2nc(-c3ccccc3)c(-c3ccccc3)o2)c1 [Example 2-75, N-benzylsulfonyl-3-{[(1S)-2-(4,5-diphenyloxazol-2-yl)-2-cyclohexen-1-yl]methyl}benzamide] | 98.2 ± 20.9 | 66.4 ± 6.9 | –
3 | ≥ 80 | O=C(NOCc1ccccc1)c1cccc(C[C@@H]2CCCC=C2c2nc(-c3ccccc3)c(-c3ccccc3)o2)c1 [Example 2-46, N-benzyloxy-3-{[(1S)-2-(4,5-diphenyloxazol-2-yl)-2-cyclohexen-1-yl]methyl}benzamide] | – | – | –
4 | – | O=C(NCC(O)c1ccccc1)c1cccc(C[C@@H]2CCC[C@H]2c2nc(-c3ccccc3)c(-c3ccccc3)o2)c1 (stereo partly drawn) [Example 1-47, N-[(2-hydroxy-2-phenyl)ethyl]-3-{[(1S,2R)-2-(4,5-diphenyloxazol-2-yl)-1-cyclopentyl]methyl}benzamide] | – | – | ≧80%

Source: patent US6437146B1, “Oxazole compounds as prostaglandin e2 agonists or antagonists” (Fujisawa Pharmaceutical Co., Ltd., priority 1998, dated 2002)
